Measured values as given in patent US9695155B2, “Herbicidal substituted pyrimidinyloxy benzene compounds” (E. I. DU PONT DE NEMOURS AND COMPANY, priority 2013, dated 2017).

Legend:
corn = experiment: Test E preemergence; type: in vivo, Zea mays; conditions: for Corn plant response rating: scale 0 to 100 (0 no effect, 100 complete control)
Text: (§1) Seeds of plant species selected from corn (Zea mays), soybean (Glycine max), velvetleaf (Abutilon theophrasti), lambsquarters (Chenopodium album), wild poinsettia (Euphorbia heterophylla), palmer pigweed (Amaranthus palmeri), waterhemp (common waterhemp, Amaranthus rudis), surinam grass (Brachiaria decumbens), large (Lg) crabgrass (Digitaria sanguinalis), Brazilian crabgrass (Digitaria horizontalis), fall panicum (Panicum dichotomiflorum), giant foxtail (Setaria faberii), green foxtail (Setaria viridis), goosegrass (Eleusine indica), johnsongrass (Sorghum halepense), ragweed (common ragweed, Ambrosia elatior), barnyardgrass (Echinochloa crus-galli), sandbur (southern sandbur, Cenchrus echinatus), arrowleaf sida (Sida rhombifolia), Italian ryegrass (Lolium multiflorum), dayflower (Virginia (VA) dayflower, Commelina virginica), field bindweed (Convolvulus arvensis), morningglory (Ipomoea coccinea), nightshade (eastern black nightshade, Solanum ptycanthum), kochia (Kochia scoparia), yellow nutsedge (Cyperus esculentus), cocklebur (common cocklebur, Xanthium strumarium), smartweed (ladysthumb smartweed, and hairy beggarticks (Bidens pilosa), were planted into a silt loam soil and treated preemergence with test chemicals formulated in a non-phytotoxic solvent mixture which included a surfactant.
(§2) At the same time, plants from these crop and weed species and also horseweed (Canada horseweed, Conyza canadensis), waterhemp_RES1, (ALS & Triazine resistant common waterhemp, Amaranthus rudis), and waterhemp_RES2, (ALS & HPPD resistant common waterhemp, Amaranthus rudis) were planted in pots containing Redi-Earth® planting medium (Scotts Company, 14111 Scottslawn Road, Marysville, Ohio 43041) comprising spaghnum peat moss, vermiculite, wetting agent and starter nutrients were treated with postemergence applications of test chemicals formulated in the same manner. Plants ranged in height from 2 to 18 cm for postemergence treatments (1- to 4-leaf stage). Treated plants and controls were maintained in a greenhouse for 14 to 21 days, after which time all species were compared to controls and visually evaluated. Plant response ratings, summarized in Table E, are based on a scale of 0 to 100 where 0 is no effect and 100 is complete control. A dash (-) response means no test result.

soybean = experiment: Test E preemergence; type: in vivo, Glycine max; conditions: for Soybean plant response rating: scale 0 to 100 (0 no effect, 100 complete control)
Text: as §1, §2

palmer pigweed = experiment: Test E preemergence; type: in vivo, Amaranthus palmeri; conditions: for Pigweed, Palmer plant response rating: scale 0 to 100 (0 no effect, 100 complete control)
Text: as §1, §2

waterhemp = experiment: Test E preemergence; type: in vivo, Amaranthus rudis; conditions: for Waterhemp plant response rating: scale 0 to 100 (0 no effect, 100 complete control)
Summary of the method: (§3)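 Test chemicals formulated in a non-phytotoxic solvent mixture containing a surfactant were applied preemergence to seeds in silt loam soil or postemergence to plants at the 1- to 4-leaf stage in potting mix. After 14 to 21 days in a greenhouse, injury was visually rated against controls on a 0-100 scale (0 = no effect, 100 = complete control).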

green foxtail = experiment: Test E preemergence; type: in vivo, Setaria viridis; conditions: for Foxtail, Green plant response rating: scale 0 to 100 (0 no effect, 100 complete control)
Text: as §1, §2

Italian ryegrass = experiment: Test E preemergence; type: in vivo, Lolium multiflorum; conditions: for Ryegrass, Italian plant response rating: scale 0 to 100 (0 no effect, 100 complete control)
Text: as §1, §2

kochia = experiment: Test E preemergence; type: in vivo, Kochia scoparia; conditions: for Kochia plant response rating: scale 0 to 100 (0 no effect, 100 complete control)
Summary of the method: as §3

ragweed = experiment: Test A postemergence; type: in vivo, Ambrosia elatior; conditions: 0 to 100 scale where 0 is no effect and 100 is complete control
Summary of the method: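 Scoring: eye-based comparison with untreated controls, 0 for no effect through 100 for complete control, at about day 10. Treatments: directed soil spray preemergence; foliar spray postemergence on 2–10 cm plants at the one- to two-leaf stage. Medium: loam soil with sand.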

[1] = 8 g ai/ha, scale 0 to 100, 0 is no effect, 100 is complete control
[2] = 125 g ai/ha, scale 0 to 100, 0 no effect, 100 complete control
[3] = 250 g ai/ha, scale 0 to 100, 0 no effect, 100 complete control

Row | SMILES | Corn plant response rating (corn; 16 g ai/ha) | Corn plant response rating (corn; 31 g ai/ha) | Corn plant response rating (corn; 62 g ai/ha) | Plant response rating, Corn (corn; [2]) | Soybean plant response rating (soybean; 16 g ai/ha) | Soybean plant response rating (soybean; 31 g ai/ha) | Soybean plant response rating (soybean; 62 g ai/ha) | Plant response rating, Soybean (soybean; [2]) | Pigweed, Palmer plant response rating (palmer pigweed; 31 g ai/ha) | Pigweed, Palmer plant response rating (palmer pigweed; 62 g ai/ha) | Plant response rating, Pigweed, Palmer (palmer pigweed; [2]) | Waterhemp plant response rating (waterhemp; 16 g ai/ha) | Waterhemp plant response rating (waterhemp; 31 g ai/ha) | Waterhemp plant response rating (waterhemp; 62 g ai/ha) | Plant response rating, Waterhemp (waterhemp; [2]) | Foxtail, Green plant response rating (green foxtail; 16 g ai/ha) | Foxtail, Green plant response rating (green foxtail; 31 g ai/ha) | Foxtail, Green plant response rating (green foxtail; 62 g ai/ha) | Plant response rating, Foxtail, Green (green foxtail; [2]) | Ryegrass, Italian plant response rating (Italian ryegrass; 16 g ai/ha) | further results
1 | Clc1cnc(Oc2ccccc2-n2cc(Br)cn2)nc1 [Compound 7, 2-[2-(4-bromo-1H-pyrazol-1-yl)phenoxy]-5-chloropyrimidine] | 0 | 0 | 0 | 0 | 0 | 0 | 40 | 50 | 85 | 100 | 100 | 100 | 100 | 100 | 100 | 0 | 30 | 35 | 75 | 0 | Plant response rating, Corn (corn; [1]): 0; Plant response rating, Soybean (soybean; [1]): 0; Plant response rating, Pigweed, Palmer (palmer pigweed; [1]): 0; Pigweed, Palmer plant response rating (palmer pigweed; 16 g ai/ha): 95; Plant response rating, Waterhemp (waterhemp; [1]): 95; Plant response rating, Foxtail, Green (green foxtail; [1]): 0; Plant response rating, Ryegrass, Italian (Italian ryegrass; [1]): 0; Ryegrass, Italian plant response rating (Italian ryegrass; 31 g ai/ha): 0; Ryegrass, Italian plant response rating (Italian ryegrass; 62 g ai/ha): 0; Plant response rating, Ryegrass, Italian (Italian ryegrass; [2]): 20; Plant response rating, Kochia (kochia; [1]): 0; Kochia plant response rating (kochia; 16 g ai/ha): 0; Kochia plant response rating (kochia; 31 g ai/ha): 0; Kochia plant response rating (kochia; 62 g ai/ha): 50; Plant response rating, Kochia (kochia; [2]): 95
2 | N#Cc1cccc(Oc2ncc(Cl)cn2)c1-n1cc(C(F)(F)F)cn1 [Compound 58, 3-[(5-chloro-2-pyrimidinyl)oxy]-2-[4-(trifluoromethyl)-1H-pyrazol-1-yl]benzonitrile] | 0 | 5 | 40 | 65 | 0 | 0 | 60 | 75 | 100 | 100 | 100 | 98 | 100 | 100 | 100 | 65 | 95 | 100 | 100 | 30 | Plant response rating, Corn (corn; [3]): 70; Plant response rating, Soybean (soybean; [3]): 95; Pigweed, Palmer plant response rating (palmer pigweed; 16 g ai/ha): 100; Plant response rating, Pigweed, Palmer (palmer pigweed; [3]): 100; Plant response rating, Waterhemp (waterhemp; [3]): 100; Plant response rating, Foxtail, Green (green foxtail; [3]): 100; Ryegrass, Italian plant response rating (Italian ryegrass; 31 g ai/ha): 35; Ryegrass, Italian plant response rating (Italian ryegrass; 62 g ai/ha): 75; Plant response rating, Ryegrass, Italian (Italian ryegrass; [2]): 98; Plant response rating, Ryegrass, Italian (Italian ryegrass; [3]): 98; Kochia plant response rating (kochia; 16 g ai/ha): 35; Kochia plant response rating (kochia; 31 g ai/ha): 100; Kochia plant response rating (kochia; 62 g ai/ha): 100; Plant response rating, Kochia (kochia; [2]): 100; Plant response rating, Kochia (kochia; [3]): 100
3 | N#Cc1cccc(Oc2ncc(F)cn2)c1-n1cc(Cl)cn1 [Compound 73] | 0 | 0 | 0 | 0 | 15 | 25 | 25 | 70 | 75 | 100 | 100 | 65 | 100 | 100 | 100 | 0 | 20 | 70 | 80 | 0 | Plant response rating, Corn (corn; [3]): 5; Plant response rating, Soybean (soybean; [3]): 80; Pigweed, Palmer plant response rating (palmer pigweed; 16 g ai/ha): 0; Plant response rating, Pigweed, Palmer (palmer pigweed; [3]): 100; Plant response rating, Waterhemp (waterhemp; [3]): 100; Plant response rating, Foxtail, Green (green foxtail; [3]): 95; Ryegrass, Italian plant response rating (Italian ryegrass; 31 g ai/ha): 20; Ryegrass, Italian plant response rating (Italian ryegrass; 62 g ai/ha): 35; Plant response rating, Ryegrass, Italian (Italian ryegrass; [2]): 35; Plant response rating, Ryegrass, Italian (Italian ryegrass; [3]): 65; Kochia plant response rating (kochia; 16 g ai/ha): 5; Kochia plant response rating (kochia; 31 g ai/ha): 75; Kochia plant response rating (kochia; 62 g ai/ha): 98; Plant response rating, Kochia (kochia; [2]): 98; Plant response rating, Kochia (kochia; [3]): 100
4 | N#Cc1cccc(Oc2ncc(F)cn2)c1-n1cc(I)cn1 [Compound 86] | 0 | 0 | 0 | 5 | 0 | 0 | 35 | 60 | 0 | 100 | 100 | 0 | 70 | 100 | 100 | 0 | 0 | 15 | 75 | 0 | Plant response rating, Ragweed (ragweed; 125 g ai/ha): 90; Plant response rating, Ragweed (ragweed; 500 g ai/ha): 100; Ryegrass, Italian plant response rating (Italian ryegrass; 31 g ai/ha): 0; Ryegrass, Italian plant response rating (Italian ryegrass; 62 g ai/ha): 0; Plant response rating, Ryegrass, Italian (Italian ryegrass; [2]): 5; Kochia plant response rating (kochia; 16 g ai/ha): 0; Kochia plant response rating (kochia; 31 g ai/ha): 90; Kochia plant response rating (kochia; 62 g ai/ha): 100; Plant response rating, Kochia (kochia; [2]): 100
5 | N#Cc1cnn(-c2c(C#N)cccc2Oc2ncc(F)cn2)c1 [Compound 111] | 0 | 0 | 0 | 15 | 0 | 20 | 40 | 70 | 20 | 100 | 100 | 0 | 65 | 80 | 100 | 0 | 10 | 70 | 90 | 0 | Pigweed, Palmer plant response rating (palmer pigweed; 16 g ai/ha): 10; Ryegrass, Italian plant response rating (Italian ryegrass; 31 g ai/ha): 0; Ryegrass, Italian plant response rating (Italian ryegrass; 62 g ai/ha): 0; Plant response rating, Ryegrass, Italian (Italian ryegrass; [2]): 20; Kochia plant response rating (kochia; 16 g ai/ha): 0; Kochia plant response rating (kochia; 31 g ai/ha): 10; Kochia plant response rating (kochia; 62 g ai/ha): 95; Plant response rating, Kochia (kochia; [2]): 95
